Consider 9 compounds from patent US5747235A, “Silver halide light sensitive emulsion layer having enhanced photographic sensitivity” (Eastman Kodak Company, priority 1996, dated 1998).

Structures can show the parent of a compound that is named as a salt.

Experiment [1] is described as follows: Example 3: photographic speed and fog, 365 nm exposure, emulsion T-2. The note with it: for effect on dye desensitization: red dyed emulsion (D-II), 365 nm. Also noted: Fog: unit not given here. The method, then: (§1) For photographic evaluation, each of the coating strips was exposed for 0.1 sec to a 365 nm emission line of a Hg lamp filtered through a Kodak Wratten filter number 18A and a step wedge ranging in density from 0 to 4 density units in 0.2 density steps. The exposed film strips were developed for 6 min in Kodak Rapid X-ray Developer (KRX). S365, relative sensitivity at 365 nm, was evaluated at a density of 0.2 units above fog.
This emulsion was precipitated using deionized gelatin. […] The chemically sensitized emulsion was then used to prepare coatings containing the fragmentable two-electron donor compounds. All of the experimental coating variations in Table III contained the hydroxybenzene 2,4-disulfocatechol (HB3) at a concentration of 13 mmole/ mole Ag, added to the melt before the addition of any further addenda. Where present, the blue sensitizing dye D-I or the red sensitizing dye D-II were added from methanol solution to the emulsion at 40° C. after the chemical sensitization and disulfocatechol addition.

A short description of experiment [2]: Example 4: photographic speed and fog, 365 nm exposure, blue dyed emulsion T-2. Also noted: Fog: unit not given here. Particulars: for Fog / S365: dye I 0.91 x10^-3; for S365: dyed control=100; for fog change: Table IV. As for the experimental part:
as §1
An AgBrI tabular silver halide emulsion (Emulsion T-2) was prepared containing 4.05% total I distributed such that the central portion of the emulsion grains contained 1.5% I and the perimeter area contained substantially higher I, as described by Chang et. al., U.S. Pat. No. 5,314,793. […] This emulsion was precipitated using deionized gelatin. The emulsion was sulfur sensitized by adding 8.5×10^-6 mole 1,3-dicarboxymethyl-1,3-dimethyl-2-thiourea /mole Ag at 40° C.; the temperature was then raised to 60° C. at a rate of 5° C./3 min and the emulsions held for 20 min before cooling to 40° C. The chemically sensitized emulsion was then used to prepare coatings containing the fragmentable two-electron donor compounds. All of the experimental coating variations in Table III contained the hydroxybenzene 2,4-disulfocatechol (HB3) at a concentration of 13 mmole/ mole Ag, added to the melt before the addition of any further addenda. Where present, the blue sensitizing dye D-I or the red sensitizing dye D-II were added from methanol solution to the emulsion at 40° C. after the chemical sensitization and disulfocatechol addition. The fragmentable two-electron donor compounds were added to the emulsion at 40° C. and the coatings were prepared and tested as described in Example 1, except that the additional gelatin used to prepare the coatings described in Table III was deionized gelatin.
The chemically sensitized AgBrI tabular emulsion T-2 as described in Example 3 was used to prepare the experimental coating variations listed in Table IV, comparing various structurally related fragmentable two-electron donating compounds varying in first oxidation potential E1. The blue sensitizing dye D-I was added from methanol solution to the emulsion at 40° C. after the chemical sensitization. The fragmentable two-electron donating compounds were then added to the emulsion and coatings prepared and tested as described in Example 3.

The nature of experiment [3]: Example 11: photographic sensitivity and fog, color format, blue sensitized emulsion T-2. The note with it: for Photographic Sensitivity SWR2B: control=100. As for the experimental part: (§2) The AgBrI tabular silver halide emulsion T-2 from Example 3 was optimally chemically and spectrally sensitized by adding NaSCN, 1.07 mmole of the blue sensitizing dye D-I per mole of silver, Na3 Au(S2 O3)2 ·2H2 O, Na2 S2 O3 ·5H2 O, and a benzothiazolium finish modifier and then subjecting the emulsion to a heat cycle to 65° C. The hydroxybenzene, 2,4-disulfocatechcol (HB3) at a concentration of 13×10^-3 mole/mole Ag was added to the emulsion melt before the start of the chemical sensitization procedure. This chemically sensitized emulsion was then used to prepare the experimental coating variations given in Table X. For all the variations in Table X, the antifoggant and stabilizer tetraazaindene (TAI) was added to the emulsion melt in an amount of 1.75 g/mole Ag before any further addenda. The fragmentable two-electron donors S-3, S-9, S-6, or S-8 were then added to the emulsion melt.
(§3) The melts were prepared for coating by adding additional water, deionized gelatin and coating surfactants. Coatings were prepared by combining the emulsion melts with a melt containing deionized gelatin and an aqueous dispersion of the cyan-forming color coupler CC-1 and coating the resulting mixture on acetate support. The final coatings contained Ag at 0.81 g/m^2, coupler at 1.61 g/m^2, and gelatin at 3.23 g/m^2. The coatings were overcoated with a protective layer containing gelatin at 1.08 g/m^2, coating surfactants, and a bisvinylsulfonylmethyl ether as a gelatin hardening agent. The structure of the color coupler CC-1 is given below: [drawing 120]
(§4) For photographic evaluation, each of the coating strips was exposed for 0.01 sec to a 3000K color temperature tungsten lamp filtered to give an effective color temperature of 5500K and further filtered through a Kodak Wratten filter number 2B, and a step wedge ranging in density from 0 to 4 density units in 0.20 density steps. This exposure gives light absorbed mainly by the blue sensitizing dye. The exposed film strips were developed for 31/4 minutes in Kodak C-41 color developer. SWR2B, relative sensitivity for this filtered exposure, was evaluated at a cyan density of 0.15 units above fog.
(§5) The AgBrI tabular emulsion T-2 as described in Example 3 was sensitized as described in Example 10 except that the hydroxybenzene HB3 was added at the completion of the chemical sensitization procedure. For all the variations in Table XI, the antifoggant and stabilizer tetraazaindene (TAI) was added to the emulsion melt in an amount of 1.75 g/mole Ag before any further addenda. The fragmentable two-electron donors S-12, S-14, S-13, or S-11 were then added to the emulsion melt. The melts were then coated and tested as described in Example 10.

A short description of experiment [4]: Example 12: photographic sensitivity and fog, color format, blue sensitized emulsion T-2. The note with it: for Photographic Sensitivity SWR2B: control=100. As for the experimental part:
as §2, §3, §4
as §5, with “XII,” for “XI,”, “electron” for “two-electron”, “PMT-1” for “S-12, S-14, S-13,”, “PMT-2” for “S-11”, “melt. These compounds contain a phenylmercaptotetrazole as the silver halide adsorbing group.” for “melt.”

Setting [5] is: 0.0022 x10^-3 mole/mole Ag, dye II 0.86 x10^-3.
The mark [6] stands for this setting: 0.0022 x10^-3 mole/mole Ag, dye II 0.86 x10^-3, dyed control 68.
Setting [7] is: 0.007 x10^-3 mole/mole Ag, dye II 0.86 x10^-3.
[8] abbreviates: 0.022 x10^-3 mole/mole Ag, dye I 0.91 x10^-3.
[9] abbreviates: 0.022 x10^-3 mole/mole Ag, dye I 0.91 x10^-3, dyed control 105.
Setting [10] is: 0.007 x10^-3 mole/mole Ag, dye II 0.86 x10^-3, dyed control 68.
The mark [11] stands for this setting: 0.07 x10^-3 mole/mole Ag, dye I 0.91 x10^-3.
The mark [12] stands for this setting: 0.07 x10^-3 mole/mole Ag, dye I 0.91 x10^-3, dyed control 105.
Where [13] appears, read: 0.07 x10^-3 mole/mole Ag, no dye.
The mark [14] stands for this setting: 0.07 x10^-3 mole/mole Ag, no dye, control=100.

On to `CCSCCN(c1ccc(C)cc1)[C@@H](C)C(=O)[O-].[Na+]` [Compound S-3, N-(4-Methylphenyl)-N-(2-ethylthio-ethyl)alanine sodium salt], for which the Fog in experiment [1] (setting [5]) is given as 0.28; in experiment [1] (setting [7]), 0.75; in experiment [1] (setting [8]), 0.16; in experiment [1] (0.022 x10^-3 mole/mole Ag, no dye) it was 0.13. Further, the S365 is recorded as 120 in experiment [1] (setting [6]); 132 in experiment [1] (setting [9]); 151 in experiment [1] (0.022 x10^-3 mole/mole Ag, no dye, control=100). In experiment [1], the “effect on dye desensitization” value is “effective in ameliorating dye desensitization”.
Regarding `CCSCCN(c1ccc(C)cc1)C(CC(=O)O)C(=O)O` (stereo not drawn) [Compound S-8], the Fog in experiment [1] (setting [5]) stood at 0.11; in experiment [1] (setting [7]), 0.15; in experiment [1] (setting [8]) it was 0.07; in experiment [1] (setting [11]), 0.12; in experiment [1] (setting [13]) it was 0.13. In addition, the S365 in experiment [1] (setting [6]) came out at 97; in experiment [1] (setting [10]) it was 112; in experiment [1] (setting [9]) it was 118; in experiment [1] (setting [12]), 120; in experiment [1] (setting [14]), 162. Besides, the “effect on dye desensitization” value in experiment [1] was “effective in ameliorating dye desensitization”.
In the case of `CCSCCN(c1ccccc1)C(C)C(=O)O` (stereo not drawn) [Compound S-9, N-(Phenyl)-N-(2-thioethyl-ethyl)alanine sodium salt], the Fog is listed as 0.21 in experiment [2] (0.22 x10^-3 mole/mole Ag); 0.41 in experiment [2] (0.44 x10^-3 mole/mole Ag); 0.63 in experiment [2] (0.88 x10^-3 mole/mole Ag); 0.24 in experiment [1] (setting [5]); 0.44 in experiment [1] (setting [7]); 0.08 in experiment [1] (setting [8]). For the same compound, the Fog in experiment [1] (setting [11]) and in experiment [1] (setting [13]) was 0.13 throughout. Moreover, the S365 was 129 in experiment [2] (0.22 x10^-3 mole/mole Ag); 102 in experiment [2] (0.44 x10^-3 mole/mole Ag); 115 in experiment [1] (setting [6]); 107 in experiment [1] (setting [10]); 159 in experiment [1] (setting [9]); 162 in experiment [1] (setting [12]). The compound further registered an S365 in experiment [1] (setting [14]) of 166. Further, the “fog change” value in experiment [2] was “modest increases in fog”. For the same compound, the “effect on dye desensitization” value in experiment [1] was “effective in ameliorating dye desensitization”.
In the case of `CCSCCN(c1ccc(C(=O)O)cc1)C(C)C(=O)O` (stereo not drawn) [Compound S-11], the Fog in experiment [2] (0.22 x10^-3 mole/mole Ag) worked out at 0.05; in experiment [2] (0.44 x10^-3 mole/mole Ag), 0.06; in experiment [2] (0.88 x10^-3 mole/mole Ag), 0.07; in experiment [3] (0.22 x10^-3 mol/molAg) it was 0.10; in experiment [3] (0.44 x10^-3 mol/molAg), 0.09. The S365 in experiment [2] (0.22 x10^-3 mole/mole Ag), in experiment [2] (0.44 x10^-3 mole/mole Ag) and in experiment [2] (0.88 x10^-3 mole/mole Ag) was 145 in each case. For the same compound, the “Photographic Sensitivity SWR2B” value was 166 in experiment [3] (0.22 x10^-3 mol/molAg) and 178 in experiment [3] (0.44 x10^-3 mol/molAg).
On to `CCSCCN(c1ccc(Cl)cc1)C(C)C(=O)O` (stereo not drawn) [Compound S-12, N-(4-Chlorophenyl)-N-(2-thioethyl-ethyl)alanine sodium salt], for which the Fog in experiment [2] (0.22 x10^-3 mole/mole Ag) is 0.18; in experiment [2] (0.44 x10^-3 mole/mole Ag), 0.21; in experiment [2] (0.88 x10^-3 mole/mole Ag), 0.29; in experiment [3] (0.22 x10^-3 mol/molAg) it was 0.11; in experiment [3] (0.44 x10^-3 mol/molAg), 0.16. For the same compound, the S365 in experiment [2] (0.22 x10^-3 mole/mole Ag) is 145; in experiment [2] (0.44 x10^-3 mole/mole Ag) it was 141; in experiment [2] (0.88 x10^-3 mole/mole Ag), 138. Also, the “fog change” value in experiment [2] was “modest increases in fog”. In addition, the “Photographic Sensitivity SWR2B” value in experiment [3] (0.22 x10^-3 mol/molAg) is given as 191; in experiment [3] (0.44 x10^-3 mol/molAg), 204.
For `CCSCCN(c1cccc(C(N)=O)c1)C(C)C(=O)O` (stereo not drawn) [Compound S-13], the Fog in experiment [2] (0.22 x10^-3 mole/mole Ag) is reported as 0.10; in experiment [2] (0.44 x10^-3 mole/mole Ag) it was 0.13; in experiment [2] (0.88 x10^-3 mole/mole Ag), 0.14; in experiment [3] (0.22 x10^-3 mol/molAg), 0.10; in experiment [3] (0.44 x10^-3 mol/molAg), 0.16. Also, the figures for the S365 in experiment [2] (0.22 x10^-3 mole/mole Ag), in experiment [2] (0.44 x10^-3 mole/mole Ag) and in experiment [2] (0.88 x10^-3 mole/mole Ag) were 151, 151 and 166, respectively. Besides, the “Photographic Sensitivity SWR2B” value in experiment [3] (0.22 x10^-3 mol/molAg) is 204; in experiment [3] (0.44 x10^-3 mol/molAg), 209.
As for `CCSCCN(c1ccccc1)C(CC(=O)O)C(=O)O` (stereo not drawn) [Compound S-14], in experiment [3] (0.22 x10^-3 mol/molAg), the Fog worked out at 0.09 and the “Photographic Sensitivity SWR2B” value amounted to 170. For the same compound, in experiment [3] (0.44 x10^-3 mol/molAg), the Fog amounted to 0.09 and the “Photographic Sensitivity SWR2B” value is listed as 178.
For `Cc1ccc(N(CCC(=O)Nc2cccc(-n3nnnc3S)c2)C(C)C(=O)O)cc1` (stereo not drawn) [PMT-1], in experiment [4] (0.5 x10^-6 mol/mol Ag), the Fog was 0.09 and the “Photographic Sensitivity SWR2B” value is listed as 138. Also, in experiment [4] (1.5 x10^-6 mol/mol Ag), the Fog was 0.15 and the “Photographic Sensitivity SWR2B” value is 166.
Regarding `CC(C(=O)O)N(CCC(=O)Nc1cccc(-n2nnnc2S)c1)c1ccccc1` (stereo not drawn) [PMT-2], the Fog was 0.09 in experiment [4] (0.5 x10^-6 mol/mol Ag), 0.10 in experiment [4] (1.4 x10^-6 mol/mol Ag) and 0.16 in experiment [4] (4.5 x10^-6 mol/mol Ag). Also, the “Photographic Sensitivity SWR2B” value in experiment [4] (0.5 x10^-6 mol/mol Ag) worked out at 141; in experiment [4] (1.4 x10^-6 mol/mol Ag) it was 166; in experiment [4] (4.5 x10^-6 mol/mol Ag) it was 191.
